The assay has as its target MhuD (Mycobacterium tuberculosis, UniProt P9WKH3). Briefly: biochemical. In kind it is binding.

Like-named read-outs stand apart in the source and are kept apart here.

Chain of MhuD (P9WKH3 whole entry): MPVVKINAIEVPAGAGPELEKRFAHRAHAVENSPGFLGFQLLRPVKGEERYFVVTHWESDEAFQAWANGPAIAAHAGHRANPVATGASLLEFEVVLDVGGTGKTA

For orientation: Kd means the constant that tells how readily two partners part at equilibrium. `C=CC1=C(C)/C(=C/c2[nH]c(/C=C3N=C(/C=C4\NC(=O)C(C)=C4C=C)C(C)=C\3CCC(=O)O)c(CCC(=O)O)c2C)NC1=O` [αBV, biliverdin IXα]: the Kd (read-out: αBV Kd) amounted to 0.0364 ± 0.0021 µM.
As to `C=CC1=C(C)C2=Cc3c(C=C)c(C)c4[n]3[Fe][n]3c(c(C)c(CCC(=O)O)c3=CC3=NC(=C4)C(C)=C3CCC(=O)O)=CC1=N2` [heme], binding was put at a Kd of 0.006 ± 0.0029 µM.

Source of the values: publication PMC7045704 (Biochemistry, 2019).
